The data set has as its system CCRIS mutagenicity, Ames/micronucleus/aberration tests. Nature of the data set: CCRIS mutagenicity studies.
The mark [1] stands for this setting: Test System: AMES SALMONELLA TYPHIMURIUM, Strain/Indicator: TA98, Metabolic Activation: NONE, Method: PREINCUBATION
The mark [2] stands for this setting: Test System: AMES SALMONELLA TYPHIMURIUM, Strain/Indicator: TA100, Metabolic Activation: NONE, Method: PREINCUBATION
Setting [3] is: Test System: AMES SALMONELLA TYPHIMURIUM, Strain/Indicator: TA100, Metabolic Activation: NONE, Method: STANDARD PLATE.
Setting [4] is: Test System: AMES SALMONELLA TYPHIMURIUM, Strain/Indicator: TA97, Metabolic Activation: NONE, Method: PREINCUBATION
The mark [5] stands for this setting: Test System: AMES SALMONELLA TYPHIMURIUM, Strain/Indicator: TA97, Metabolic Activation: RAT, LIVER, S-9, AROCLOR 1254, Method: PREINCUBATION
The mark [6] stands for this setting: Test System: AMES SALMONELLA TYPHIMURIUM, Strain/Indicator: TA98, Metabolic Activation: RAT, LIVER, S-9, AROCLOR 1254, Method: PREINCUBATION
[7] abbreviates: Test System: AMES SALMONELLA TYPHIMURIUM, Strain/Indicator: TA100, Metabolic Activation: RAT, LIVER, S-9, AROCLOR 1254, Method: PREINCUBATION
Setting [8] is: Test System: AMES SALMONELLA TYPHIMURIUM, Strain/Indicator: TA102, Metabolic Activation: NONE, Method: PREINCUBATION
[9] abbreviates: Test System: AMES SALMONELLA TYPHIMURIUM, Strain/Indicator: TA102, Metabolic Activation: RAT, LIVER, S-9, AROCLOR 1254, Method: PREINCUBATION
Setting [10] is: Test System: AMES SALMONELLA TYPHIMURIUM, Strain/Indicator: TA104, Metabolic Activation: NONE, Method: PREINCUBATION
Setting [11] is: Test System: AMES SALMONELLA TYPHIMURIUM, Strain/Indicator: TA104, Metabolic Activation: RAT, LIVER, S-9, AROCLOR 1254, Method: PREINCUBATION
Setting [12] is: Test System: AMES SALMONELLA TYPHIMURIUM, Strain/Indicator: TA1535, Metabolic Activation: NONE, Method: PREINCUBATION
[13] abbreviates: Test System: AMES SALMONELLA TYPHIMURIUM, Strain/Indicator: TA1535, Metabolic Activation: RAT, LIVER, S-9, AROCLOR 1254, Method: PREINCUBATION
Where [14] appears, read: Test System: AMES SALMONELLA TYPHIMURIUM, Strain/Indicator: TA1537, Metabolic Activation: NONE, Method: PREINCUBATION
Setting [15] is: Test System: AMES SALMONELLA TYPHIMURIUM, Strain/Indicator: TA1537, Metabolic Activation: RAT, LIVER, S-9, AROCLOR 1254, Method: PREINCUBATION
Setting [16] is: Test System: AMES SALMONELLA TYPHIMURIUM, Strain/Indicator: TA1538, Metabolic Activation: NONE, Method: PREINCUBATION
[17] abbreviates: Test System: AMES SALMONELLA TYPHIMURIUM, Strain/Indicator: TA1538, Metabolic Activation: RAT, LIVER, S-9, AROCLOR 1254, Method: PREINCUBATION
The mark [18] stands for this setting: Test System: CHINESE HAMSTER V-79, Strain/Indicator: V-79/8-AZAGUANINE, Metabolic Activation: NONE.

Activity calls are given as the source filed them. No rule for the calls is given here.

On to `Nc1cc([N+](=O)[O-])ccc1-c1ccc([N+](=O)[O-])cc1`, for which the mutagenic call reads like this: under setting [1], “active; positive”; (Test System: AMES SALMONELLA TYPHIMURIUM, Strain/Indicator: TA98, Metabolic Activation: RAT LIVER S-9, AROCLOR 1254, Method: PREINCUBATION) “active; positive”; under setting [2], “active; positive”; under setting [3], “active; positive”; (Test System: AMES SALMONELLA TYPHIMURIUM, Strain/Indicator: TA100, Metabolic Activation: RAT LIVER S-9, AROCLOR 1254, Method: PREINCUBATION) “active; positive”; (Test System: AMES SALMONELLA TYPHIMURIUM, Strain/Indicator: TA104, Metabolic Activation: NONE, Method: STANDARD PLATE) “active; positive”. The mutagenic call was “inactive; negative” (Test System: AMES SALMONELLA TYPHIMURIUM, Strain/Indicator: TA4001, Metabolic Activation: NONE, Method: STANDARD PLATE); “active; positive” (Test System: AMES SALMONELLA TYPHIMURIUM, Strain/Indicator: TA4006, Metabolic Activation: NONE, Method: STANDARD PLATE); “active; positive” (Test System: AMES SALMONELLA TYPHIMURIUM, Strain/Indicator: TA7002, Metabolic Activation: NONE, Method: STANDARD PLATE); “active; positive” (Test System: AMES SALMONELLA TYPHIMURIUM, Strain/Indicator: TA7002, Metabolic Activation: RAT LIVER S-9, AROCLOR 1254, Method: STANDARD PLATE); “active; positive” (Test System: AMES SALMONELLA TYPHIMURIUM, Strain/Indicator: TA7003, Metabolic Activation: NONE, Method: STANDARD PLATE); “active; positive” (Test System: AMES SALMONELLA TYPHIMURIUM, Strain/Indicator: TA7003, Metabolic Activation: RAT LIVER S-9, AROCLOR 1254, Method: STANDARD PLATE). Further, the mutagenic call runs as follows: (Test System: AMES SALMONELLA TYPHIMURIUM, Strain/Indicator: TA7004, Metabolic Activation: NONE, Method: STANDARD PLATE) “active; positive”; (Test System: AMES SALMONELLA TYPHIMURIUM, Strain/Indicator: TA7004, Metabolic Activation: RAT LIVER S-9, AROCLOR 1254, Method: STANDARD PLATE) “active; positive”; (Test System: AMES SALMONELLA TYPHIMURIUM, Strain/Indicator: TA7005, Metabolic Activation: NONE, Method: STANDARD PLATE) “active; positive”; (Test System: AMES SALMONELLA TYPHIMURIUM, Strain/Indicator: TA7005, Metabolic Activation: RAT LIVER S-9, AROCLOR 1254, Method: STANDARD PLATE) “active; positive”; (Test System: AMES SALMONELLA TYPHIMURIUM, Strain/Indicator: TA7006, Metabolic Activation: NONE, Method: STANDARD PLATE) “active; positive”; (Test System: AMES SALMONELLA TYPHIMURIUM, Strain/Indicator: TA7006, Metabolic Activation: RAT LIVER S-9, AROCLOR 1254, Method: STANDARD PLATE) “active; positive”. Further, the mutagenic call is, setting by setting: (Test System: Ames Salmonella typhimurium, Strain/Indicator: TA102, Metabolic Activation: None, Method: Preincubation) “active; positive”; (Test System: Ames Salmonella typhimurium, Strain/Indicator: TA102, Metabolic Activation: Rat, liver, S-9, Aroclor 1254 (4%), Method: Preincubation) “inactive; negative”.
`O=[N+]([O-])c1ccc(CN2C3c4ccccc4-c4ccccc4C32)cc1` (stereo not given): the mutagenic call under setting [3] is “active; positive”.
`CC(=O)Nc1nc2c3cccnc3cc(C)c2n1C`: the mutagenic call was “inactive; negative” (Test System: AMES SALMONELLA TYPHIMURIUM, Strain/Indicator: TA98(1,8-DNP6), Metabolic Activation: RAT, LIVER, S-9, Method: STANDARD PLATE); “active; positive” (Test System: AMES SALMONELLA TYPHIMURIUM, Strain/Indicator: TA98(NR), Metabolic Activation: RAT, LIVER, S-9, Method: STANDARD PLATE); “active; positive” (Test System: AMES SALMONELLA TYPHIMURIUM, Strain/Indicator: TA98, Metabolic Activation: RAT, LIVER, S-9, Method: STANDARD PLATE); “active; positive” (Test System: AMES SALMONELLA TYPHIMURIUM, Strain/Indicator: TA98, Method: STANDARD PLATE).
Take `O=c1[nH]c(=O)n([C@H]2C[C@H](O)[C@@H](CO)O2)cc1I`: the mutagenic call by setting is: under setting [4], “inactive; negative”; under setting [5], “inactive; negative”; under setting [1], “inactive; negative”; under setting [6], “inactive; negative”; under setting [2], “inactive; negative”; under setting [7], “inactive; negative”. Further, the mutagenic call is “inactive; negative” under setting [8]; “inactive; negative” under setting [9]; “inactive; negative” under setting [10]; “inactive; negative” under setting [11]; “inactive; negative” under setting [12]; “inactive; negative” under setting [13]. Besides, the mutagenic call reads like this: under setting [14], “inactive; negative”; under setting [15], “inactive; negative”; under setting [16], “inactive; negative”; under setting [17], “inactive; negative”; under setting [18], “active; positive”; (Test System: UDS RODENT HEPATOCYTES, Strain/Indicator: THY INCORP, Metabolic Activation: NONE) “inactive; negative”.
Regarding `Nc1nc(=O)n([C@H]2C[C@H](O)[C@@H](CO)O2)cc1CCCl`, the mutagenic call was “inactive; negative” under setting [4]; “inactive; negative” under setting [5]; “inactive; negative” under setting [1]; “inactive; negative” under setting [6]; “inactive; negative” under setting [2]; “inactive; negative” under setting [7]. For the same compound, the mutagenic call by setting is: under setting [8], “inactive; negative”; under setting [9], “inactive; negative”; under setting [10], “inactive; negative”; under setting [11], “inactive; negative”; under setting [12], “inactive; negative”; under setting [13], “inactive; negative”. Also, the mutagenic call is, setting by setting: under setting [14], “inactive; negative”; under setting [15], “inactive; negative”; under setting [16], “inactive; negative”; under setting [17], “inactive; negative”; under setting [18], “inactive; negative”.

(Values after PubChem BioAssay AID1259407 (Chemical Carcinogenesis Research Information System (CCRIS), 2018).)
